Values of other authors, collected in patent publication US20230286919A1, “ISOQUINOLINE DERIVATIVES FOR USE IN THERAPY” (Vestlandets Innovasjonsselskap AS, priority 2020, published 2023).

Test system: STAT1 and STAT5
Conditions: cited from earlier work

SMILES: Cc1ccc(S(=O)(=O)OCC(=O)Nc2ccc(C(=O)O)c(O)c2)cc1 [S3I-201]
- Activity towards STAT1 and STAT5: low activity
